Converted amounts (≈) assume the structure as drawn. Numbered stars: 1 amine (or outer) side, 2 acyl side, 3 side chain; on linkers, the order of the positions; unused ones are H or OH. Bridge positions count the residues as written; N and C are the ends. Square brackets hold non-standard residues; d marks the D form. Peptide text beside a SMILES is read from it. Adda = CO[C@@H](Cc1ccccc1)[C@@H](C)/C=C(C)/C=C/[C@H](N[*:1])[C@H](C)C(=O)[*:2]; dAsp(3S-Me) = C[C@H](C(=O)[*:3])[C@@H](N[*:1])C(=O)[*:2]; d(γGlu) = O=C(O)[C@@H](CCC(=O)[*:2])N[*:1]; NMeDha = C=C(NC)C(=O)O; Dha = C=C(N)C(=O)O
Tested on: primary cultured rat hepatocytes
Settings: not given
In the case of `C=C1C(=O)N[C@H](C)C(=O)N[C@@H](CC(C)C)C(=O)N[C@@H](C(=O)O)[C@H](C)C(=O)N[C@@H](CCCNC(=N)N)C(=O)N[C@@H](/C=C/C(C)=C/[C@H](C)[C@H](Cc2ccccc2)OC)[C@H](C)C(=O)N[C@@H](C(=O)O)CCC(=O)N1C` [No.1, MC-LR, reference compound] (R[Adda][d(γGlu)][NMeDha][dA]L[dAsp(3S-Me)]-OH; lactam N-7), the “IC50 (concentration showing 50% cell viability)” value is reported as 0.800 µg/mL (≈ 0.804 µM).
With `C=C1NC(=O)CC[C@H](C(=O)O)NC(=O)[C@@H](C)[C@H](/C=C/C(C)=C/[C@H](C)[C@H](Cc2ccccc2)OC)NC(=O)[C@H](CCCNC(=N)N)NC(=O)[C@@H](C)[C@H](C(=O)O)NC(=O)[C@H](CC(C)C)NC(=O)[C@@H](C)NC1=O` [No.2, [Dha^7] MC-LR] (R[Adda][d(γGlu)][Dha][dA]L[dAsp(3S-Me)]-OH; lactam N-7) the “IC50 (concentration showing 50% cell viability)” value was 0.217 µg/mL (≈ 0.221 µM).
For `C=C1C(=O)N[C@H](C)C(=O)N[C@@H](CC(C)C)C(=O)N[C@@H](C(=O)O)CC(=O)N[C@@H](CCCNC(=N)N)C(=O)N[C@@H](/C=C/C(C)=C/[C@H](C)[C@H](Cc2ccccc2)OC)[C@H](C)C(=O)N[C@@H](C(=O)O)CCC(=O)N1C` [No.3, [D-Asp^3] MC-LR], the “IC50 (concentration showing 50% cell viability)” value was 0.217 µg/mL (≈ 0.221 µM).
With `C=C1NC(=O)CC[C@H](C(=O)O)NC(=O)[C@@H](C)[C@H](/C=C/C(C)=C/[C@H](C)[C@H](Cc2ccccc2)OC)NC(=O)[C@H](CCCNC(=N)N)NC(=O)C[C@H](C(=O)O)NC(=O)[C@H](CC(C)C)NC(=O)[C@@H](C)NC1=O` [No.4, [D-Asp^3, Dha^7] MC-LR] the “IC50 (concentration showing 50% cell viability)” value was 0.217 µg/mL (≈ 0.224 µM).
In the case of `C/C=C1/NC(=O)CC[C@H](C(=O)O)NC(=O)[C@@H](C)[C@H](/C=C/C(C)=C/[C@H](C)[C@H](Cc2ccccc2)OC)NC(=O)[C@H](CCCNC(=N)N)NC(=O)C[C@H](C(=O)O)NC(=O)[C@H](CC(C)C)NC(=O)[C@@H](C)NC1=O` [No.5, [D-Asp^3, E-Dhb^7] MC-LR], the “IC50 (concentration showing 50% cell viability)” value is reported as 0.133 µg/mL (≈ 0.136 µM).
With `C/C=C1\NC(=O)CC[C@H](C(=O)O)NC(=O)[C@@H](C)[C@H](/C=C/C(C)=C/[C@H](C)[C@H](Cc2ccccc2)OC)NC(=O)[C@H](CCCNC(=N)N)NC(=O)C[C@H](C(=O)O)NC(=O)[C@H](CC(C)C)NC(=O)[C@@H](C)NC1=O` [No.6, [D-Asp^3, Z-Dhb^7] MC-LR] the “IC50 (concentration showing 50% cell viability)” value was 0.053 µg/mL (≈ 0.054 µM).
For `C=C1C(=O)N[C@H](C)C(=O)N[C@@H](Cc2ccc(O)cc2)C(=O)N[C@@H](C(=O)O)[C@H](C)C(=O)N[C@@H](CCCNC(=N)N)C(=O)N[C@@H](/C=C/C(C)=C/[C@H](C)[C@H](Cc2ccccc2)OC)[C@H](C)C(=O)N[C@@H](C(=O)O)CCC(=O)N1C` [No.7, MC-YR] (R[Adda][d(γGlu)][NMeDha][dA]Y[dAsp(3S-Me)]-OH; lactam N-7), the “IC50 (concentration showing 50% cell viability)” value was 1.48 µg/mL (≈ 1.42 µM).
For `C=C1NC(=O)CC[C@H](C(=O)O)NC(=O)[C@@H](C)[C@H](/C=C/C(C)=C/[C@H](C)[C@H](Cc2ccccc2)OC)NC(=O)[C@H](CCCNC(=N)N)NC(=O)[C@@H](C)[C@H](C(=O)O)NC(=O)[C@H](Cc2ccc(O)cc2)NC(=O)[C@@H](C)NC1=O` [No.8, [Dha^7] MC-YR] (R[Adda][d(γGlu)][Dha][dA]Y[dAsp(3S-Me)]-OH; lactam N-7), the “IC50 (concentration showing 50% cell viability)” value was 0.418 µg/mL (≈ 0.405 µM).
For `C=C1C(=O)N[C@H](C)C(=O)N[C@@H](CCCNC(=N)N)C(=O)N[C@@H](C(=O)O)[C@H](C)C(=O)N[C@@H](CCCNC(=N)N)C(=O)N[C@@H](/C=C/C(C)=C/[C@H](C)[C@H](Cc2ccccc2)OC)[C@H](C)C(=O)N[C@@H](C(=O)O)CCC(=O)N1C` [No.12, MC-RR] (R[Adda][d(γGlu)][NMeDha][dA]R[dAsp(3S-Me)]-OH; lactam N-7), the “IC50 (concentration showing 50% cell viability)” value was >10 µg/mL.
For `C=C1NC(=O)CC[C@H](C(=O)O)NC(=O)[C@@H](C)[C@H](/C=C/C(C)=C/[C@H](C)[C@H](Cc2ccccc2)OC)NC(=O)[C@H](CCCNC(=N)N)NC(=O)[C@@H](C)[C@H](C(=O)O)NC(=O)[C@H](CCCNC(=N)N)NC(=O)[C@@H](C)NC1=O` [No.14, [Dha^7] MC-RR] (R[Adda][d(γGlu)][Dha][dA]R[dAsp(3S-Me)]-OH; lactam N-7), the “IC50 (concentration showing 50% cell viability)” value was 5.33 µg/mL (≈ 5.2 µM).
With `C=C1NC(=O)CC[C@H](C(=O)O)NC(=O)[C@@H](C)[C@H](/C=C/C(C)=C/[C@H](C)[C@H](Cc2ccccc2)OC)NC(=O)[C@H](CCCNC(=N)N)NC(=O)C[C@H](C(=O)O)NC(=O)[C@H](CCCNC(=N)N)NC(=O)[C@@H](C)NC1=O` [No.15, [D-Asp^3, Dha^7] MC-RR] the “IC50 (concentration showing 50% cell viability)” value was 4.11 µg/mL (≈ 4.07 µM).

Same assay, conditions: 72 h
In the case of `C=C1C(=O)N[C@H](C)C(=O)N[C@@H](CCc2ccc(O)cc2)C(=O)N[C@@H](C(=O)O)CC(=O)N[C@@H](CCCNC(=N)N)C(=O)N[C@@H](/C=C/C(C)=C/[C@H](C)[C@H](Cc2ccccc2)OC)[C@H](C)C(=O)N[C@@H](C(=O)O)CCC(=O)N1C` [No.9, [D-Asp^3] MC-HtyR], the “IC50 (concentration showing 50% cell viability)” value is reported as 0.347 µg/mL (≈ 0.332 µM).
With `C/C=C1/NC(=O)CC[C@H](C(=O)O)NC(=O)[C@@H](C)[C@H](/C=C/C(C)=C/[C@H](C)[C@H](Cc2ccccc2)OC)NC(=O)[C@H](CCCNC(=N)N)NC(=O)C[C@H](C(=O)O)NC(=O)[C@H](CCc2ccc(O)cc2)NC(=O)[C@@H](C)NC1=O` [No.10, [D-Asp^3, E-Dhb^7] MC-HtyR] the “IC50 (concentration showing 50% cell viability)” value was 0.327 µg/mL (≈ 0.313 µM).
With `C/C=C1\NC(=O)CC[C@H](C(=O)O)NC(=O)[C@@H](C)[C@H](/C=C/C(C)=C/[C@H](C)[C@H](Cc2ccccc2)OC)NC(=O)[C@H](CCCNC(=N)N)NC(=O)C[C@H](C(=O)O)NC(=O)[C@H](CCc2ccc(O)cc2)NC(=O)[C@@H](C)NC1=O` [No.11, [D-Asp^3, Z-Dhb^7] MC-HtyR] the “IC50 (concentration showing 50% cell viability)” value was 0.120 µg/mL (≈ 0.115 µM).

Tested on: primary rat hepatocytes
Settings: cited from earlier work
In the case of `C=C1C(=O)N[C@H](C)C(=O)N[C@@H](CC(C)C)C(=O)N[C@@H](C(=O)O)[C@H](C)C(=O)N[C@@H](CCCNC(=N)N)C(=O)N[C@@H](/C=C/C(C)=C/[C@H](C)[C@H](Cc2ccccc2)OC)[C@H](C)C(=O)N[C@@H](C(=O)O)CCC(=O)N1C` [No.1, MC-LR, reference compound] (R[Adda][d(γGlu)][NMeDha][dA]L[dAsp(3S-Me)]-OH; lactam N-7), the “IC50 of MC-LR to primary rat hepatocytes, earlier study” value is given as 0.048 µg/mL.

— publication PMC3920255 (Toxins, 2013)
